Test results published in ChEMBL document CHEMBL3217594, “Structureactivity relationships of methyl-lysine reader antagonists” (Medchemcomm, 2012).
Calls of active or inactive are those of the source. The rule behind the calls is not given here.

What was measured:
[1] = molecular target: T1, MBT domain-containing protein 1 (Homo sapiens, UniProt Q05BQ5); assay: Antagonist activity at MBTD1 (unknown origin) assessed as inhibition of MBTD1/biotinylated H4K20Me1 peptide interaction after 30 mins by AlphaScreen assay
T1 sequence (Q05BQ5 whole entry, the tested form may be a part): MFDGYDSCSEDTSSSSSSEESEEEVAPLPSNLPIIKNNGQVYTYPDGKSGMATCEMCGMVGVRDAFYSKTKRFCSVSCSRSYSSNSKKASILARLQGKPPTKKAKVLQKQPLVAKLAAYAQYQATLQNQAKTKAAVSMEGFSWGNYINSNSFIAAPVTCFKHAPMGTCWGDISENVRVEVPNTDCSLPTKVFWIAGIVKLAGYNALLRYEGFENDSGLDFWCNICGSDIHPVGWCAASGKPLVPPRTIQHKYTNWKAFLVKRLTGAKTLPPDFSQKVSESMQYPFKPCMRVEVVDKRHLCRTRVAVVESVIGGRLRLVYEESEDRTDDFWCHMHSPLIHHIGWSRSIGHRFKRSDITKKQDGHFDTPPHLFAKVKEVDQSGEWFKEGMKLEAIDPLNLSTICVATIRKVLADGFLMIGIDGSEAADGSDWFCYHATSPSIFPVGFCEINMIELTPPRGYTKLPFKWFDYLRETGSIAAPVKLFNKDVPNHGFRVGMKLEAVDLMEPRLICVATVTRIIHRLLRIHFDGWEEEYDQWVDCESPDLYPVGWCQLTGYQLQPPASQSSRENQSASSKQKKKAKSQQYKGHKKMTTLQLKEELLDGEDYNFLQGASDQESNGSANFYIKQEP

[2] = molecular target: T2, Lethal(3)malignant brain tumor-like protein 3 (Homo sapiens) (UniProt Q96JM7); assay: Antagonist activity at His-tagged L3MBTL3 (unknown origin) assessed as inhibition of L3MBTL3/biotinylated H4K20Me2 peptide interaction at 30 uM after 30 mins by AlphaScreen assay
T2 sequence (whole entry): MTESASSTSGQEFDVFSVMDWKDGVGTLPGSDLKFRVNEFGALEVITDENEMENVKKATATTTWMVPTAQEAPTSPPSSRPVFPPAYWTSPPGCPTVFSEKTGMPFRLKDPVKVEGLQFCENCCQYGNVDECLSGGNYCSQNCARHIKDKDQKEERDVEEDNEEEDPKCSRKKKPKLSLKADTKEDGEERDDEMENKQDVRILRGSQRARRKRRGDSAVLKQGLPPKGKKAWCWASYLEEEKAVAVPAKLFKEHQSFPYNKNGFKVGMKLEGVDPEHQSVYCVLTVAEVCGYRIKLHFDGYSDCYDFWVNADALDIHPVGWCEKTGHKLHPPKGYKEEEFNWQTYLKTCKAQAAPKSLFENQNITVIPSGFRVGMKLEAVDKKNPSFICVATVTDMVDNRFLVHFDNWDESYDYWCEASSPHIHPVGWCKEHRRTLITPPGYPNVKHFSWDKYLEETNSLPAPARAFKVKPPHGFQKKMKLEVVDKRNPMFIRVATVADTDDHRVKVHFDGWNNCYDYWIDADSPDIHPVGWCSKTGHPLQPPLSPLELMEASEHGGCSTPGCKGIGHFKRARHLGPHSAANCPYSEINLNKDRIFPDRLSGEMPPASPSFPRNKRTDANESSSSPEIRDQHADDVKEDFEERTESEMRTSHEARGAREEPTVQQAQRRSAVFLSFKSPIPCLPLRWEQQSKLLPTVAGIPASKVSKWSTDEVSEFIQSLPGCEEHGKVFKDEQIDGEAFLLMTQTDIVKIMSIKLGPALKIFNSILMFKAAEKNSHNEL

[3] = molecular target: T3, Chromobox protein homolog 7 (Homo sapiens, UniProt O95931); assay: Antagonist activity at Flag-tagged CBX7 (unknown origin) assessed as inhibition of CBX7/biotinylated H3K9Me3 peptide interaction after 30 mins by AlphaScreen assay
T3 sequence (O95931 whole entry): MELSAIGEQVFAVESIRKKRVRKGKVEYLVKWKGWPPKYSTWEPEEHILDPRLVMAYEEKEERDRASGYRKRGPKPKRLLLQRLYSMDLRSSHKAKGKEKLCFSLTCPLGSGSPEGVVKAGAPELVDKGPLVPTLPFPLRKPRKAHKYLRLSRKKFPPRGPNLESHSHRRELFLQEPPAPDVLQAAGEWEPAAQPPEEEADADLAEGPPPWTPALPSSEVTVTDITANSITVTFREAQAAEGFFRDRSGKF

[4] = molecular target: T1, MBT domain-containing protein 1; assay: Antagonist activity at MBTD1 (unknown origin) assessed as inhibition of MBTD1/biotinylated H4K20Me1 peptide interaction at 30 uM after 30 mins by AlphaScreen assay
[5] = molecular target: T4, Lethal(3)malignant brain tumor-like protein 4 (Homo sapiens) (UniProt Q8NA19); assay: Antagonist activity at L3MBTL4 (unknown origin) assessed as inhibition of L3MBTL4/biotinylated H2AK36Me1 peptide interaction at 30 uM after 30 mins by AlphaScreen assay
T4 sequence (whole entry): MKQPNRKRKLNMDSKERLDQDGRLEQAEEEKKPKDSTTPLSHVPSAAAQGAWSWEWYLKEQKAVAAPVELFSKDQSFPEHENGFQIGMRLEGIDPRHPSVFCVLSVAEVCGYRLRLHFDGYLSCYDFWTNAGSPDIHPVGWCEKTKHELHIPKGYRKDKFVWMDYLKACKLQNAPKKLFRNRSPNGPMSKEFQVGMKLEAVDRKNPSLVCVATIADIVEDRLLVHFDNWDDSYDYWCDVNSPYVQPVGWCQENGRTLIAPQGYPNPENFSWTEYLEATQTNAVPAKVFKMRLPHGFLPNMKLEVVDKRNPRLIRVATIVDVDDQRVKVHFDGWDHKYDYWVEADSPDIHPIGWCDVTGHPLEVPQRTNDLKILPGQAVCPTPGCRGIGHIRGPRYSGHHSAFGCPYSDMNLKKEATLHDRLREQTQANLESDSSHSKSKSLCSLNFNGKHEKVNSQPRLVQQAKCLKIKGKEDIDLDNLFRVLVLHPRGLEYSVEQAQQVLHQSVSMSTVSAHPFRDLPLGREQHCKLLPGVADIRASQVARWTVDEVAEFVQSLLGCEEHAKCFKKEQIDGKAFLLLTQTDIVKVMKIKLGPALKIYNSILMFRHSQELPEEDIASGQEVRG

[6] = molecular target: T5, Lethal(3)malignant brain tumor-like protein 3 (Homo sapiens, UniProt Q96JM7); assay: Antagonist activity at His-tagged L3MBTL3 (unknown origin) assessed as inhibition of L3MBTL3/biotinylated H4K20Me2 peptide interaction after 30 mins by AlphaScreen assay
T5 sequence (Q96JM7 whole entry): T2 sequence (whole entry)

[7] = tested on: T6, Lethal(3)malignant brain tumor-like protein 1 (Homo sapiens), Q9Y468 [D355N]; conditions: 5 to 25 uM
T6 sequence (whole entry): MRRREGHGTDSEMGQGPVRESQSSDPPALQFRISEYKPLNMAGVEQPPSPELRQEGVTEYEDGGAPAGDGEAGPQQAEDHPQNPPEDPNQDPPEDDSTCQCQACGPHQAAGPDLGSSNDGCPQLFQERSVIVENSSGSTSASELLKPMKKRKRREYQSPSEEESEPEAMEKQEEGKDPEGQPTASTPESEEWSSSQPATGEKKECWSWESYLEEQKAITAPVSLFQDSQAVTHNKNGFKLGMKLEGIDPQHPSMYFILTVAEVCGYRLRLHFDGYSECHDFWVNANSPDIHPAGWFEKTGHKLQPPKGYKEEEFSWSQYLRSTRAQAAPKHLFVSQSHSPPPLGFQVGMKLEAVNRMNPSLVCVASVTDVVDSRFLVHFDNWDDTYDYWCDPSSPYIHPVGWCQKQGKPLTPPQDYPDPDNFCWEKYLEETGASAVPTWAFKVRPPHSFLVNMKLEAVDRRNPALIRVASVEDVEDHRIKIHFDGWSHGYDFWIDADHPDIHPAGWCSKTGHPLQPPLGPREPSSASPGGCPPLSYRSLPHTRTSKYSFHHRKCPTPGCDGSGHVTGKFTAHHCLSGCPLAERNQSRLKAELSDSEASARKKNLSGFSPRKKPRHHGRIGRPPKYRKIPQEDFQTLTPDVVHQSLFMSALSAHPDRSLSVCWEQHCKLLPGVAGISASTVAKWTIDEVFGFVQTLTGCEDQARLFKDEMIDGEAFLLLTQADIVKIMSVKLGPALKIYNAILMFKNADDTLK
Description: Inhibition of GST-fused L3MBTL1 3xMBT-D355N mutant (unknown origin)/biotinylated H4K20Me1 peptide interaction at 5 to 25 uM by pull down assay based western blot analysis

[8] = molecular target: TP53-binding protein 1 (Homo sapiens) (UniProt Q12888); assay: Effect on GST-fused 53BP1 Tudor domain (unknown origin)/biotinylated H4K20Me1 peptide interaction assessed as binding of 53BP1 to H4K20Me1 at 5 uM by pull down assay based western blot analysis
TP53-binding protein 1 (Homo sapiens), sequence (Q12888 whole entry, the tested form may be a part): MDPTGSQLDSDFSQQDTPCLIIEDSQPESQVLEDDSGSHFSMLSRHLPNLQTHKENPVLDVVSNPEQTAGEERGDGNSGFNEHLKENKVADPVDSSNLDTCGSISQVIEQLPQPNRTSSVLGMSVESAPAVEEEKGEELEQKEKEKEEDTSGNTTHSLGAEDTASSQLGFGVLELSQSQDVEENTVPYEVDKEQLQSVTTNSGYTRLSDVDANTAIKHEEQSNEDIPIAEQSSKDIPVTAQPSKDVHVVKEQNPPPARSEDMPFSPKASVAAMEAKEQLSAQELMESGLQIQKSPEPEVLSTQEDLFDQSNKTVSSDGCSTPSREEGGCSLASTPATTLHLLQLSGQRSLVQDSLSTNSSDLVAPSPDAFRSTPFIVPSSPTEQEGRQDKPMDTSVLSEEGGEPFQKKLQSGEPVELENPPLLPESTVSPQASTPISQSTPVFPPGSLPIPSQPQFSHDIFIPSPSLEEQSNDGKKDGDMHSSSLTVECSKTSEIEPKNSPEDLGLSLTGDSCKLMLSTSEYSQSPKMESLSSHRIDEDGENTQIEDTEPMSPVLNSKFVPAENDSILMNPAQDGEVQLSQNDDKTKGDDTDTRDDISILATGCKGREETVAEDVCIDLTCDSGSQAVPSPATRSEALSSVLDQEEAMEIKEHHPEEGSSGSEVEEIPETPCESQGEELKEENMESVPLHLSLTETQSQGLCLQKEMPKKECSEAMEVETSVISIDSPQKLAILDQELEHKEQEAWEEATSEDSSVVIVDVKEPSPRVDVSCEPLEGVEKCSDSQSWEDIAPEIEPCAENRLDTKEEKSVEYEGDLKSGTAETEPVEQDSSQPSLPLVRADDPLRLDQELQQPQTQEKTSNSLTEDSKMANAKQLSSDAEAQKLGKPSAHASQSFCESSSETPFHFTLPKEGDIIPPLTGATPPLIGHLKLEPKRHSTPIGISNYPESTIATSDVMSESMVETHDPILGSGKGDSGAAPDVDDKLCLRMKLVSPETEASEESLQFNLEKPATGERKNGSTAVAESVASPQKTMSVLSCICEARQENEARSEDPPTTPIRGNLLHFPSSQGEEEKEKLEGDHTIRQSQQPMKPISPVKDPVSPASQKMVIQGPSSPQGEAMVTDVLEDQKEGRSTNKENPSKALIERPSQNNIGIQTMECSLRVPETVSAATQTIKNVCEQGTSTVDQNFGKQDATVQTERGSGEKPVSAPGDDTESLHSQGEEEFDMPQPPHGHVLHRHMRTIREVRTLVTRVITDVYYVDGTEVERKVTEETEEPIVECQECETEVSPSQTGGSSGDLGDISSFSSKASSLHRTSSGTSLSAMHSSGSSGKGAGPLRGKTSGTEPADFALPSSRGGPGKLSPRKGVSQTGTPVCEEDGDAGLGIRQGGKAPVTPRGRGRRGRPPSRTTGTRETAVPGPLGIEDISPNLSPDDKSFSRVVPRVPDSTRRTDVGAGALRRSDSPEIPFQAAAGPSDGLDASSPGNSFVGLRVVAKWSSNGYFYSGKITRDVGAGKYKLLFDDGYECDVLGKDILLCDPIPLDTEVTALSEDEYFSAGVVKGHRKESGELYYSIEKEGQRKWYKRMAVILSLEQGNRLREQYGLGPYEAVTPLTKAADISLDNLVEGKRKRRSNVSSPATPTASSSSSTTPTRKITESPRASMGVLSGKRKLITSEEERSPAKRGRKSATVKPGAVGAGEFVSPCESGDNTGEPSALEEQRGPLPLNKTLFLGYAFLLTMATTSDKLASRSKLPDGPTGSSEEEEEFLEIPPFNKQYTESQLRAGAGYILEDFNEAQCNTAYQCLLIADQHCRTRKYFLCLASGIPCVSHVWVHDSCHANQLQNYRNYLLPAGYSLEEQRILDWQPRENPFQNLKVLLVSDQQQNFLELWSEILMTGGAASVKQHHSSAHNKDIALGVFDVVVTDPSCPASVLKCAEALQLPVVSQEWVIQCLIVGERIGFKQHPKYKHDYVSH

Compound	IC50 [1]	inhibition [2]	IC50 [3]	inhibition [4]	inhibition [5]	IC50 [6]	inhibition [7]	Activity [8]
O=C(c1cccc(Br)c1)N1CCC(N2CCCC2)C1 (stereo not given)	> 30 µM	40%	> 30 µM	13%	inactive	> 30 µM		
CC(c1cccc(Br)c1)N1CCC(N2CCCC2)CC1 (racemic)	9 µM		> 30 µM		13%	16 µM		
O=C(c1cccc(Br)c1)N1CCC(N2CCCC2)CC1	> 30 µM		> 30 µM	44%		3.2 µM	inactive	124%
CC1CCCN1C1CCN(C(=O)c2cccc(Br)c2)CC1 (stereo not given)	> 30 µM	25%	> 30 µM	16%	inactive	> 30 µM		
O=C(c1cccc(Br)c1)N1CCC(C2CCCN2)CC1 (stereo not given)	9.2 µM	52%	> 30 µM		inactive			
O=C(c1cccc(Br)c1)N1CCN(C2CCCC2)CC1	> 30 µM	5%	> 30 µM	inactive	inactive	> 30 µM		
CNC1CCN(C(=O)c2cccc(Br)c2)CC1	> 30 µM	9%	> 30 µM	3%	inactive	> 30 µM		
CN1CCCC1C1CCN(C(=O)c2cccc(Br)c2)CC1 (stereo not given)	> 30 µM		> 30 µM	32%	inactive	21 µM		
O=C(c1cccc(Br)c1)N1CCC(N2CCC2)CC1	> 30 µM		> 30 µM	20%	4%	23.8 µM		
O=C(O)c1cccc(C(=O)N2CCC(N3CCCC3)CC2)c1	> 30 µM		> 30 µM	4%	26%	6.9 µM		
O=C(c1cccc(Br)c1)N1CCC(N2CCCCC2)CC1	29.7 µM	21%	> 30 µM		inactive	> 30 µM	inactive	120%
C[N+]1(C2CCN(C(=O)c3cccc(Br)c3)CC2)CCCC1	> 30 µM	13%	> 30 µM	3%	inactive	> 30 µM		
CN(C)C1CCN(C(=O)c2cccc(Br)c2)CC1	> 30 µM	18%	> 30 µM	1%	inactive	> 30 µM		
O=S(=O)(c1cccc(Br)c1)N1CCC(N2CCCC2)CC1	21.9 µM		> 30 µM		6%	3.7 µM		
Brc1cccc(CN2CCC(N3CCCC3)CC2)c1	18.6 µM		> 30 µM		10%	13.3 µM		
